From patent publication US20250129033A1, “METAP2 INHIBITORS AND USES THEREOF” (Yissum Research Development Company of the Hebrew …, priority 2022, published 2025)

System: A375 cells
Assay: A375 proliferation assay (MTT)
Format: cell-based, human
Conditions: 1-100 μM, 72 h, dose-dependent
Method: Human Umbilical Vein Endothelial Cells (HUVECs) or human melanoma cell line (A375) were used to validate the ability of the compound to suppress endothelial cell proliferation. Each 1500 A375 cells/well or 2000 HUVEC cells/well were seeded in a 96 wells plate and allowed to adhere to the plate for few hours. Compounds were then added to the cells at concentration range of 0.05-10 μM (<0.1% DMSO). Cells were then incubated for additional 72 hours and MTT was done (2 to 3 h at 37° C.). The dye was solubilized with DMSO and the absorbance was determined at 570 nm.
A375 were seeded (2000 cells/well) exposed to TNP-470 and to arrange concentrations of AD-3281 (1-100 μM) cells were incubated for 72 h at 37° C., After incubation, MTT (Sigma Aldrich, St. Louis City, MO, USA) was added (0.5 mg/mL) into each well for viability detection and incubated at 37° C. and 5% CO2 for 40 minutes. The absorbance was measured at 540 nm using a plate reader (Wallac 1420 VICTOR plate reader, Perkin-Elmer Life Sciences, USA). The proliferation of HUVECs was measured under the same conditions. HUVECs were seeded (3000 cells/well) in 96-well plates […]

COC1C(OC(=O)CC23CC4CC(CC(C4)C2)C3)CCC2(CO2)C1C1(C)OC1CC=C(C)C (stereo not shown) [AD-3281, Fumagillol-1-adamantylacetate]
reduction in A375 cancer cell proliferation: 37-63%
